As usually defined, the EC50 is the midpoint of the concentration-response curve. For orientation: IC50 means the concentration that inhibits the measured activity by half.

For experiment [1], the system named is GRE reporter gene in A549 cells. In words: GRE reporter gene assay in A549 cells (MMTV-Luc). Type of experiment: cell-based. The note with it: 24 h; for EC50: Homo sapiens. The method, then: 4. GRE reporter gene assay A549 cells were plated (40,000 cells/96-well plate), transfected with pGL4.36 (MMTV-Luc, 100 ng/well) using lipo3000, cultured overnight and then incubated with different concentrations of small-molecule steroids. After 24 h, the expression of luciferase in the reporter gene system was detected using the Bright-Glo (promega) assay reagent.
In general terms: A reporter such as luciferase makes a cellular process visible.

Another experiment has as its target T1, human recombinant GR (Homo sapiens, UniProt P04150).
T1 sequence (P04150 1-777): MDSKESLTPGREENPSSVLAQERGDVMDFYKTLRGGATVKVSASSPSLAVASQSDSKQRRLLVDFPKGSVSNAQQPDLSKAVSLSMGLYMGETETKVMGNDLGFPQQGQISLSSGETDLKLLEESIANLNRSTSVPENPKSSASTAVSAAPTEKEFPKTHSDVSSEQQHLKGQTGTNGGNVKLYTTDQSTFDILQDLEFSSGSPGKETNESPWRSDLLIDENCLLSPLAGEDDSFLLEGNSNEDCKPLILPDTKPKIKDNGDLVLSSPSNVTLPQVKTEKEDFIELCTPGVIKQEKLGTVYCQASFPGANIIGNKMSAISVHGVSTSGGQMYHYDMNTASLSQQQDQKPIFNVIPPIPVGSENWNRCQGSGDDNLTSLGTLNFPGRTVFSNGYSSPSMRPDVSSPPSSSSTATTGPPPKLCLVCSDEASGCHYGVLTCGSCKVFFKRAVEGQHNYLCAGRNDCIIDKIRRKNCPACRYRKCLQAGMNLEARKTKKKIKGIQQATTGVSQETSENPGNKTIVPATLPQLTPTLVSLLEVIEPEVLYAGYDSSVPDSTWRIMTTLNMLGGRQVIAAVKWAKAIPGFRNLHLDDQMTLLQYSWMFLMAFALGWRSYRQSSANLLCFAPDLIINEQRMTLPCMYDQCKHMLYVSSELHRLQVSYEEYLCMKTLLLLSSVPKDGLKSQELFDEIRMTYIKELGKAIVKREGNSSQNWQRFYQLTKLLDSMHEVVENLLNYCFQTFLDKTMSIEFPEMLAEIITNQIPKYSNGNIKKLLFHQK
The experiment in a line: human glucocorticoid NHR (radiolabeled agonist) binding assay. The note with it: competition with 5 nM [3H]dexamethasone, 4° C., 24 h. The method, then:
2. Glucocorticoid Receptor Binding Assay
The assays were based on the following principle: Different concentrations of a small-molecule steroid and 5 nM [3H]dexamethasone are incubated with human recombinant GR at 4° C. for 24 h. The small-molecule steroid competes with [3H]dexamethasone for binding to human GR. The binding activity of the small-molecule steroid for GR can be calculated by counting the number of [3H]dexamethasone molecules that bind specifically to the receptor.

In experiment [2] the target is T2, mineralocorticoid receptor (MR) (Homo sapiens, UniProt P08235).
T2 construct: expressed in transfected cells; host or cells: PathHunter NHR CHO-K1 cells
T2 sequence (P08235 1-984): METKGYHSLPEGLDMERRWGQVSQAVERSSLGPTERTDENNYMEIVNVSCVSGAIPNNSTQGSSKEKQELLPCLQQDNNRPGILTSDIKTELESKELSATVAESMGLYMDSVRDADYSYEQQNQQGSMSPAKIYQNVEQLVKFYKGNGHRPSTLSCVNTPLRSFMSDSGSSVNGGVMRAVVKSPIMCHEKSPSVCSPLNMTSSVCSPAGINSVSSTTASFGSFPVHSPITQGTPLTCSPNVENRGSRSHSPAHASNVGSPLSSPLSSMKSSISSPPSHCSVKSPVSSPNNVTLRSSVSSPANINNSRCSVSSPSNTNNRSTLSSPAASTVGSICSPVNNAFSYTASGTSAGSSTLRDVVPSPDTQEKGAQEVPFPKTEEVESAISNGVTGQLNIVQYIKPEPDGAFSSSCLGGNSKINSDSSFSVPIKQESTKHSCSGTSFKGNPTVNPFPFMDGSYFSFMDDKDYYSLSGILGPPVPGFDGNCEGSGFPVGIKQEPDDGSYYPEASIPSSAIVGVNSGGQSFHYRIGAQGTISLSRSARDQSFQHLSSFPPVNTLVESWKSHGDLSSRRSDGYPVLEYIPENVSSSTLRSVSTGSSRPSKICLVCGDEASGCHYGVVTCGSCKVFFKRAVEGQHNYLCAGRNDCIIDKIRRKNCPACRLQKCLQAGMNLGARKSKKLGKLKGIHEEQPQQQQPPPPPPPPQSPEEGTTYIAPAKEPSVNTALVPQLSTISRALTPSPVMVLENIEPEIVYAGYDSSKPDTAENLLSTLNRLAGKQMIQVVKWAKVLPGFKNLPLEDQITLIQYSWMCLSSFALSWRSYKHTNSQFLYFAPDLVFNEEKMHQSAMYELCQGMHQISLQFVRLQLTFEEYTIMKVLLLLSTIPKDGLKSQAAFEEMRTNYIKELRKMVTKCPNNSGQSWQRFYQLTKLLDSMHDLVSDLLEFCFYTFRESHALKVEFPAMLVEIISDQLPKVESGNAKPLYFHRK
In words: Mineralocorticoid receptor agonist activity, PathHunter NHR nuclear translocation assay. Type of experiment: cell-based. The note with it: PathHunter NHR CHO-K1 cells. As for the experimental part:
3. Mineralocorticoid Receptor Agonist Activity Assay The mineralocorticoid receptor (MR) agonist activity of small-molecule steroids was tested using a PathHunter® NHR nuclear translocation assay. PathHunter NHR CHO-K1 cells were plated onto a 384-well white-wall microplate and co-incubated with test small-molecule steroids at 37° C. in 5% CO2 to induce reactions. Assay signals were generated using the PathHunter assay reagent mix. After one hour of incubation at room temperature, chemiluminescent signals were detected. The data were analyzed using four-parameter curve fitting to generate EC50 values.

Experiment [3] concerns mouse collagen antibody-induced arthritis (CAIA) model. The experiment in a line: Mouse collagen antibody-induced arthritis (CAIA) model. Type of experiment: in vivo. The note with it: 10 mg/kg intraperitoneally twice a week; FIG. 6. As for the experimental part:
Male balb/c mice, 6 w, purchased from the Laboratory Animal Management Department, Shanghai Institute of Planned Parenthood Research. Housing environment: SPF; production license SCXK (Shanghai) 2018-0006; Balb/c mouse certification number: 20180006023393.
Upon arrival, the test animals were acclimatized for 7 days and randomly grouped. On day 0, each group of mice was intraperitoneally injected with 1.5 mg/mouse of type II collagen antibody cocktail (purchased from Chondrex Inc.) for modeling except for the control group. On day 3, each group of mice was intraperitoneally injected with […] of LPS (100 μL) to boost the immune response except for the control group. Administration to each group of mice began on day 5, and limb arthritis was scored every 1-3 days. Mice were dosed according to the following administration regimens. The severity of arthritis in each group of mice was semi-quantitatively scored every 1-3 days and further, the anti-inflammatory activity of anti-TNF-ADCs was evaluated.

Where only a bound is given, the exact number is not on record here.

For `C[C@]12C=CC(=O)C=C1CC[C@@H]1[C@@H]2[C@@H](O)C[C@@]2(C)[C@H]1C[C@H]1O[C@@H](c3ccc(Cc4cccc(N)c4)cc3)O[C@]12C(=O)CO` [A-A, reference compound], in experiment [1], the “GRE reporter gene Emax” value was determined as 1.45E6 RLU and the 50% effective concentration (EC50) turned out to be 0.6 nM.

Turning to `C[C@]12C=CC(=O)C=C1CC[C@@H]1[C@@H]2[C@@H](O)C[C@@]2(C)[C@H]1C[C@H]1O[C@@H](c3ccc(-c4ccc(-c5cccc(N)c5)cc4)cc3)O[C@]12C(=O)CO` [Compound 1-A], the IC50 at human recombinant GR was found to be 4.37 nM. The 50% effective concentration (EC50) in experiment [2] is more than 200000 nM. In experiment [1], the “GRE reporter gene Emax” value turned out to be 7.67E5 RLU and the EC50 stood at 22.6 nM.

On to `C[C@]12C=CC(=O)C=C1CC[C@@H]1[C@@H]2[C@@H](O)C[C@@]2(C)[C@H]1C[C@H]1O[C@@H](c3ccc(C(=O)c4cccc(N)c4)cc3)O[C@]12C(=O)CO` [Compound 2-A], for which the IC50 at human recombinant GR was 6.69 nM. The compound also displayed an EC50 in experiment [2] of 220 nM.

Consider `C[C@]12C=CC(=O)C=C1CC[C@@H]1[C@@H]2[C@@H](O)C[C@@]2(C)[C@H]1C[C@H]1O[C@@H](c3ccc(Cc4cccc5c(N)cccc45)cc3)O[C@]12C(=O)CO` [Compound 3-A], for which the IC50 on human recombinant GR was determined as 2.24 nM. For the same compound, the EC50 in experiment [2] is 190 nM. Also, in experiment [1], the “GRE reporter gene Emax” value worked out at 1.53E6 RLU and the EC50 was found to be 1.47 nM.

In the case of `C[C@]12C=CC(=O)C=C1CC[C@@H]1[C@@H]2[C@@H](O)C[C@@]2(C)[C@H]1C[C@H]1O[C@@H](c3ccc(C(F)(F)c4cccc(N)c4)cc3)O[C@]12C(=O)CO` [Compound 4-A], the IC50 on human recombinant GR turned out to be 2.12 nM. Also, the values for the EC50 in experiment [2] and in experiment [1] were 260 nM and 2.16 nM, respectively. For the same compound, the “GRE reporter gene Emax” value in experiment [1] turned out to be 1.69E6 RLU.

On to `C[C@]12C=CC(=O)C=C1CC[C@H]1[C@@H]3C[C@H]4O[C@@H](c5ccc(C(=O)c6cccc(N)c6)cc5)O[C@@]4(C(=O)CO)[C@@]3(C)C[C@H](O)[C@@]12F` [Compound 5-A], for which the half-maximal inhibitory concentration (IC50) on human recombinant GR amounted to 5.23 nM. Further, in experiment [1], the “GRE reporter gene Emax” value was 2.3E7 RLU and a half-maximal effect (EC50) was put at 4.3 nM.

As to adalimumab [Humira], the “anti-inflammatory activity in the CAIA model” value in experiment [3] is listed as “weak anti-inflammatory activity”.

The values above are taken from patent US20240189438A1, “DRUG CONJUGATE OF GLUCOCORTICOID RECEPTOR AGONIST, AND APPLICATION THEREOF IN MEDICINE” (Shanghai Senhui Medicine Co., Ltd., priority 2021, published 2024).
